# Data: patent US7659244B2, “Rapamycin peptides conjugates: synthesis and uses thereof” (Quest Pharmatech, Inc., priority 2004, dated 2010)
# Counter-ions that a name gives are not always drawn. Like-named read-outs stand apart in the source and are kept apart here.
# How the values were obtained:
# [1] = system: A431; assay: cells; details: Homo sapiens, A-431, 96 h, read-out: Inhibition of H^3 Thymidine uptake (IC50 in nM)
# Procedure: (§1) Quantification of cell proliferation and cell viability was determined by measuring the amount of radioactive [^3H-methyl]-thymidine incorporated into DNA.
# (§2) Cell culture: For each cell line, culture was carried according to the ATCC Product Information Sheet provided. Cell lines were always freshly thawed prior to each experiment. For all experiments exponentially growing cells were harvested and centrifuged at 1100 rpm, the spent medium was aspirated and cell pellets were resuspended in fresh complete medium. Viable cells were enumerated by trypan blue exclusion using a hemacytometer.
# (§3) Cells were then seeded in 96 well tissue culture plates in a total volume of 100 μL/well. A preliminary experiment should be performed to determine the most appropriate cell density for each individual cell line. Cells were allowed to attach and acclimate overnight.
# (§4) Addition of test compounds: Each test compound was dissolved in DMSO at a final concentration of 2 mM. Each stock compound was then diluted in complete medium (1:100) to obtain a 20 μM working solution. The working solution was used for further serial dilutions to obtain concentrations of 200 nM, 20 nM, 2 nM, 0.2 nM and 0.02 nM. 100 μL of each dilution was added to the 100 μL cell cultures (3 replicates),. to give final test concentrations of 100 nM, 10 nM, 1 nM, 0.1 nM and 0.01 nM. Using this system of dilutions, the maximum concentration of DMSO to which the cells were exposed was 0.01% v/v. Therefore, 0.01% DMSO was added to control cells to which no test compounds was added. On each plate two positive controls were included: Adriamycin Hydrochloride and Rapamycin. For each positive control 3 concentrations were chosen in a range that achieved an LC50, this range is cell line specific and must be predetermined in a pilot experiment. Plates were incubated for 96 hours prior to harvesting. [^3H-methyl]-thymidine incorporation: After 80 hours incubation, 10 μL (0.5 μCi) of [^3H-methyl]-thymidine diluted in 1× HBSS was added and plates were incubated overnight.
# (§5) Growth medium was removed from each well and 100 uL of Trypsin-EDTA was added. The plate was incubated at 37° C. until cells were trypsinized (check under microscope). The detached cells were harvested using a semiautomatic cell harvester. Filters were dried prior to addition to scintillation vials. two mL of scintillation fluid was automatically dispensed into each vial and counting was effected on program 1 (^3H, 1 min, DPM).
# (§6) The average and standard error from the DPM counts of replicate samples were calculated.
# [2] = system: D341; assay: cells; details: Homo sapiens, D341, 96 h, read-out: Inhibition of H^3 Thymidine uptake (IC50 in nM)
# Procedure: as §1, §2, §3, §4, §5, §6
# [3] = system: LS174T; assay: cells; details: Homo sapiens, 96 h, read-out: Inhibition of H^3 Thymidine uptake (IC50 in nM)
# Procedure: as §1, §2, §3, §4, §5, §6
# [4] = system: Lncap; assay: cells; details: Homo sapiens, 96 h, read-out: Inhibition of H^3 Thymidine uptake (IC50 in nM)
# Procedure: as §1, §2, §3, §4, §5, §6
# [5] = system: SK-N-SH; assay: cells; details: Homo sapiens, 96 h, read-out: Inhibition of H^3 Thymidine uptake (IC50 in nM)
# Procedure: as §1, §2, §3, §4, §5, §6
# [6] = system: SKOV-3; assay: cells; details: Homo sapiens, SK-OV-3, 96 h, read-out: Inhibition of H^3 Thymidine uptake (IC50 in nM)
# Procedure: as §1, §2, §3, §4, §5, §6
# [7] = system: OVCAR-3; assay: cells; details: Homo sapiens, OVCAR-3, 96 h, read-out: Inhibition of H^3 Thymidine uptake (IC50 in nM)
# Procedure: as §1, §2, §3, §4, §5, §6
# [8] = system: MCF-7; assay: cells; details: Homo sapiens, MCF7, 96 h, read-out: Inhibition of H^3 Thymidine uptake (IC50 in nM)
# Procedure: as §1, §2, §3, §4, §5, §6
# [9] = system: SKMEL-2; assay: cells; details: Homo sapiens, SK-MEL-2, 96 h, read-out: Inhibition of H^3 Thymidine uptake (IC50 in nM)
# Procedure: as §1, §2, §3, §4, §5, §6
# [10] = system: various cell lines; details: in vitro; cited from earlier work
# [11] = system: D341; details: read-out: Inhibition of H^3 Thymidine uptake (IC50 in nM); D341 cells, 96 hours incubation
# Procedure: as §1, §2, §3, §4, §5, §6
# [12] = system: SK-N-SH; details: read-out: Inhibition of H^3 Thymidine uptake (IC50 in nM); SK-N-SH cells, 96 hours incubation
# Procedure: as §1, §2, §3, §4, §5, §6
# [13] = system: SKOV-3; details: read-out: Inhibition of H^3 Thymidine uptake (IC50 in nM); SKOV-3 cells, 96 hours incubation
# Procedure: as §1, §2, §3, §4, §5, §6
# [14] = system: MCF-7; details: read-out: Inhibition of H^3 Thymidine uptake (IC50 in nM); MCF-7 cells, 96 hours incubation
# Procedure: as §1, §2, §3, §4, §5, §6
# [15] = system: A431; details: read-out: Inhibition of H^3 Thymidine uptake (IC50 in nM); A431 cells, 96 hours incubation
# Procedure: as §1, §2, §3, §4, §5, §6
# [16] = system: SKMEL-2; details: read-out: Inhibition of H^3 Thymidine uptake (IC50 in nM); SKMEL-2 cells, 96 hours incubation
# Procedure: as §1, §2, §3, §4, §5, §6
# [17] = system: LS174T; details: read-out: Inhibition of H^3 Thymidine uptake (IC50 in nM); LS174T cells, 96 hours incubation
# Procedure: as §1, §2, §3, §4, §5, §6
# [18] = system: Lncap; details: read-out: Inhibition of H^3 Thymidine uptake (IC50 in nM); Lncap cells, 96 hours incubation
# Procedure: as §1, §2, §3, §4, §5, §6
# [19] = system: OVCAR-3; details: read-out: Inhibition of H^3 Thymidine uptake (IC50 in nM); OVCAR-3 cells, 96 hours incubation
# Procedure: as §1, §2, §3, §4, §5, §6
IC50 [1],IC50 [2],IC50 [3],IC50 [4],IC50 [5],IC50 [6],IC50 [7],IC50 [8],IC50 [9],IC50 [11],IC50 [12],IC50 [13],IC50 [14],IC50 [15],IC50 [16],IC50 [17],IC50 [18],IC50 [19],Structure (SMILES),IC50 [10]
–,–,–,–,–,–,–,–,–,86.8 nM,56.7 nM,69.1 nM,31.3 nM,626 nM,147 nM,664 nM,136 nM,488 nM,"CCC(C)C(CO)NC(=O)O[C@@H]1CC[C@@H](C[C@@H](C)[C@@H]2CC(=O)[C@H](C)/C=C(\C)[C@@H](O)[C@@H](OC)C(=O)[C@H](C)C[C@H](C)/C=C/C=C/C=C(\C)[C@@H](OC)C[C@@H]3CC[C@@H](C)[C@@](O)(O3)C(=O)C(=O)N3CCCC[C@H]3C(=O)O2)C[C@H]1OC (stereo partly shown) [Compound 7m, Rapamycin-42-O-ester-2-amino-3-methyl-1-pentanol]",–
–,–,–,–,–,–,–,–,–,61.2 nM,99.3 nM,64.1 nM,53.3 nM,278 nM,73.2 nM,24000 nM,202 nM,367 nM,"COC1CC2CCC(C)C(O)(O2)C(=O)C(=O)N2CCCCC2C(=O)OC(C(C)CC2CCC(OC(=O)NC(CO)CC(C)C)C(OC)C2)CC(=O)C(C)C=C(C)C(O)C(OC)C(=O)C(C)CC(C)C=CC=CC=C1C [Compound 7t, Rapamycin-42-O-ester-(S)-(+)-2-amino-4-methyl pentanol]",–

# Further lines, the molecule ahead of its results:
Structure (SMILES),IC50 [1],IC50 [2],IC50 [3],IC50 [4],IC50 [5],IC50 [6],IC50 [7],IC50 [8],IC50 [9],IC50 [11],IC50 [12],IC50 [13],IC50 [14],IC50 [15],IC50 [16],IC50 [17],IC50 [18],IC50 [19],IC50 [10]
"COc1cccc2c1C(=O)c1c(O)c3c(c(O)c1C2=O)C[C@@](O)(C(=O)CO)C[C@@H]3O[C@H]1C[C@H](N)[C@H](O)[C@H](C)O1 [Adriamycin, Adriamycin Hydrochloride]",50.4 nM,7.02 nM,4.04 nM,2.54 nM,0.896 nM,130 nM,4.77 nM,3.11 nM,1.93 nM,–,–,–,–,–,–,–,–,–,–
CO[C@H]1C[C@@H]2CC[C@@H](C)[C@@](O)(O2)C(=O)C(=O)N2CCCC[C@H]2C(=O)O[C@H]([C@H](C)C[C@@H]2CC[C@@H](OC(=O)C(C)(CO)CO)[C@H](OC)C2)CC(=O)[C@H](C)/C=C(\C)[C@@H](O)[C@@H](OC)C(=O)[C@H](C)C[C@H](C)/C=C/C=C/C=C/1C [CCI-779],–,–,–,–,–,–,–,–,–,–,–,–,–,–,–,–,–,–,< 0.01 µM
"CO[C@H]1C[C@@H]2CC[C@@H](C)[C@@](O)(O2)C(=O)C(=O)N2CCCC[C@H]2C(=O)O[C@H]([C@H](C)C[C@@H]2CC[C@@H](O)[C@H](OC)C2)CC(=O)[C@H](C)/C=C(\C)[C@@H](O)[C@@H](OC)C(=O)[C@H](C)C[C@H](C)/C=C/C=C/C=C/1C [Compound 5, Rapamycin]",341 nM,1.56 nM,980 nM,30.3 nM,1.33 nM,0.392 nM,44.5 nM,0.408 nM,1.12 nM,–,–,–,–,–,–,–,–,–,–
"CO[C@H]1C[C@@H]2CC[C@@H](C)[C@@](O)(O2)C(=O)C(=O)N2CCCC[C@H]2C(=O)O[C@H]([C@H](C)C[C@@H]2CC[C@@H](OC(=O)N[C@@H](CO)[C@H](C)O)[C@H](OC)C2)CC(=O)[C@H](C)/C=C(\C)[C@@H](O)[C@@H](OC)C(=O)[C@H](C)C[C@H](C)/C=C/C=C/C=C/1C [Compound 7q, Rapamycin-42-O-ester-(2S,3S)-2-amino-1,3-butanediol]",–,–,–,–,–,–,–,–,–,25.2 nM,5.25 nM,6.35 nM,1.29 nM,313 nM,9.15 nM,1630 nM,17.4 nM,56.5 nM,–
